# Source: patent publication US6254853A, “Water soluble pro-drugs of propofol” (Vyrex Corporation, priority 1998, dated 2001)
# Entries after “also recorded” stand apart in the source; their conditions may differ.
# Tests used:
# [1] = system: spinal cord; conditions: literature; cited from earlier work
# [2] = literature; cited from earlier work
# [3] = system: colorectal cancer tumors; conditions: mice; co-administered with 5-fluorouracil or doxorubicin; Chinery et al. 1997; cited from earlier work
# [4] = system: low density lipoprotein (LDL); experiment: Effect of propofol esters on copper-promoted oxidation of LDL (conjugated dienes); type: biochemical, human; conditions: 5 μM; 100 μg/ml LDL, 5 μM copper sulfate
# From the text: (§1) The following experiment is based on the use of low density lipoprotein (LDL) as an oxidizable substrate. LDL is one of the plasma lipoproteins whose oxidation is thought to contribute to the pathogenesis of atherosclerosis. The copper-promoted, the hydrogen peroxide-/horseradish peroxidase-promoted and the myeloperoxidase-promoted oxidation of LDL are models for the free radical-induced oxidation of LDL that occurs in vivo.
# (§2) LDL was isolated from heparinized plasma of normal human donors by ultracentrifugation. Most of the experiments described in this study were performed immediately after isolation. Examples and further details of the experimental procedures may be found in N. Santanam et al. J. Clin Invest. 95(6):2594 (1995) and FEBS Leters, 414:549-551 (1997).
# (§3) The formation of conjugated dienes was measured in a spectrophotometer (model DB-3500; SLM-AMINCO, Urbana, Ill.) equipped with a 12 position sample changer. Samples and references were measured continuously for periods of up to several hours. Typically, 100 μg/ml of LDL was incubated in PBS with 1 U horseradish peroxidase (type X, 260 U/mg) in the presence of 50 μM H2 O2. For copper-mediated oxidation, 100 μg/ml LDL was incubated with 5 μM copper sulfate solution.
# [5] = system: low density lipoprotein (LDL); experiment: Effect of propofol esters on hydrogen peroxide/horseradish peroxidase-promoted oxidation of LDL (conjugated dienes); type: biochemical, human; conditions: 5 μM; 100 μg/ml LDL, 1 U horseradish peroxidase, 50 μM H2O2
# From the text: as §1, §2, §3
# [6] = In vitro hydrolysis of propofol esters to propofol in human saliva; type: in vitro ADME; conditions: room temperature, approximate
# Protocol: (§4) In vitro hydrolysis of propofol esters in various media
# (§5) General procedure: Propofol ester was dissolved in the test medium at room temperature, and samples were removed periodically for analysis. The samples were extracted with hexane, the extracts were evaporated to dryness, and the residues were taken up in methanol. Analysis was by HPLC using methanol solvent through an ODS column and UV detection at 260 nm.
# (§6) The approximate half-life for the hydrolysis of propofol hemisuccinate to propofol in various media were as follows: […]
# [7] = Water solubility; conditions: in words
# [8] = In vitro hydrolysis of propofol esters to propofol in water (PBS buffer pH 7.4); type: in vitro ADME; conditions: room temperature, approximate
# Protocol: as §4, §5, §6
# [9] = In vitro hydrolysis of propofol esters to propofol in albumin; type: in vitro ADME; conditions: room temperature, approximate
# Protocol: as §4, §5, §6
# [10] = In vitro hydrolysis of propofol esters to propofol in human plasma; type: in vitro ADME; conditions: room temperature, approximate
# Protocol: as §4, §5, §6
# [11] = In vitro hydrolysis of propofol esters to propofol in human whole blood; type: in vitro ADME; conditions: room temperature, approximate
# Protocol: as §4, §5, §6
# [12] = In vitro hydrolysis of propofol esters to propofol in rat whole blood; type: in vitro ADME; conditions: room temperature, approximate
# Protocol: as §4, §5, §6
# [13] = In vivo hydrolysis of propofol hemisuccinate after gavage (blood levels of propofol; observation of the animals); design: species or system male Sprague-Dawley rats; conditions: rat, two days following dosing
# Protocol: At a dosage of 400 mg of propofol hemisuccinate per kg body weight, the blood level of propofol at 4 hrs was about 1 μg/ml.
# [14] = system: Human low density lipoprotein (huLDL); experiment: Effect of propofol esters on myeloperoxidase-mediated oxidation of LDL (conjugated dienes); type: biochemical; conditions: concentration not given
# From the text: as §1, §2
# Human low density lipoprotein (huLDL) in the presence of myeloperoxidase undergoes oxidative modification. The oxidative damage may be measured by spectrophotometric detection of the resulting conjugated dienes (N. Santanam & S. Parthasarathy, J. Clin. Invest, 95(6):2594 (1995)).
# [15] = in words; background knowledge; cited from earlier work
# [16] = system: lipid peroxidation; conditions: Misacchia et al. 1991; cited from earlier work
smiles,measurement,setting,value
Cc1c(C)c2c(c(C)c1O)CCC(C)(CCCC(C)CCCC(C)CCCC(C)C)O2 (stereo not drawn) [Alpha-tocopherol],effect on chronic neurological recovery,[1],enhance chronic neurological recovery
same,effect on post-traumatic spinal cord ischemia,[1],decrease post-traumatic spinal cord ischemia
same,uptake into the central nervous system,[2],very slowly
same,growth of colorectal cancer tumors,[3],inhibited the growth
CC(C)c1cccc(C(C)C)c1OP(=O)(O)Oc1c(C(C)C)cccc1C(C)C [di(propofol) phosphoric acid ester],effect on copper-promoted oxidation of LDL,[4],not significantly affected
same,effect on oxidation of LDL in the presence of horseradish peroxidase/hydrogen peroxide,[5],not significantly affected
CC(C)c1cccc(C(C)C)c1OP(=O)(O)O [mono(propofol) phosphate],Half-Life to Hydrolysis,[6],about four
same,effect on copper-promoted oxidation of LDL,[4],not significantly affected
same,effect on oxidation of LDL in the presence of horseradish peroxidase/hydrogen peroxide,[5],not significantly affected
same,solubility in water,[7],most soluble
"CC(C)c1cccc(C(C)C)c1OC(=O)CCC(=O)O [propofol hemisuccinate, 2,6-diisopropylphenyl hydrogen succinate]",half-life,[8],~336 h
same,half-life,[9],~144 h
same,half-life,[6],~96 h
same,half-life,[10],~72 h
same,half-life,[11],~48 h
same,half-life,[12],~2 h
same,condition of the animals through the two day observation period,[13],remained healthy and active
same,effect on copper-promoted oxidation of LDL,[4],not significantly affected
same,effect on oxidation of LDL in the presence of horseradish peroxidase/hydrogen peroxide,[5],slightly inhibited
same,effect on oxidation of LDL in the presence of myeloperoxidase,[14],partly inhibited; also recorded: significantly inhibited
same,solubility in water,[7],most soluble
"CC(C)c1cccc(C(C)C)c1O [propofol, 2,6-diisopropylphenol]",effect on copper-promoted oxidation of LDL,[4],almost totally inhibited
same,effect on oxidation of LDL in the presence of horseradish peroxidase/hydrogen peroxide,[5],almost totally inhibited
same,water solubility of propofol,[15],almost completely insoluble in water; also recorded: very low water solubility
same,inhibition of lipid peroxidation,[16],inhibit lipid peroxidation
"S=C(S)N1CCCC1 [pyrrolidine dithiocarbamate (PDTC), pyrrolidine dithiocarbamate]",growth of colorectal cancer tumors,[3],inhibited the growth
